Test system: troponin I
Experiment: Randomized double-blind trial of PEPA in blood-based STH cardioplegia; blood troponin I by immunoassay (ADVIA Centaur)
Format: in vivo, human
Conditions: patients undergoing coronary artery bypass surgery; versus STH without PEPA
Method: A study was carried out to determine the effect of PEPA on heart tissue in patients with ischemic heart disease undergoing coronary artery bypass surgery. The study was a randomized, double-blind, parallel group, comparative trial that compared the effect during surgery (and shortly thereafter) of the presence or absence of a single dose of PEPA in blood-based STH.
The patients were assigned randomly to one of two groups. For the first group, PEPA was made up in a concentration of 495 μM/L as a single dose added to blood-based STH (“PEPA+STH”). Normal blood-based STH (without PEPA) was administered to the second group. There were 37 patients in each group.
PEPA was made up under sterile conditions in 40 ml of Ringer's solution and then filtered using a sterile 0.22 μm filter to sterilize the solution. Ten mL aliquots of the sterile PEPA solution were measured and added to each of three 1 L bags of Ringer's solution under sterile conditions providing a Ringer's solution containing 990 μM/L PEPA. […]
A sample of blood was collected from each patient at regular intervals during surgery (at the time of anaesthesia and at 6 and 12 hours after the start of surgery) and after surgery (at 24, 48 and 72 hours after the start of surgery). Each sample was analyzed by an immunoassay method using an ADVIA Centaur® system to determine the level of troponin I. […]

SMILES: C=C(OP(=O)(O)O)C(N)=O [PEPA, 2-(dihydroxyphosphoryloxy)prop-2-enoic amide]
- overall concentration of troponin I in the blood over the period studied: markedly reduces

— patent publication US20080125400A1, “USE OF PHOSPHOENOLPYRUVATE DERIVATIVES” (priority 2006, published 2008)
